Paper PMC6199309, “A therapeutic approach to pantothenate kinase associated neurodegeneration” (Nature Communications, 2018)

Key:
[1] = molecular target: T1, ABL1(M351T)-phosphorylated (Homo sapiens, UniProt P00519, M351T); assay: KINOMEscan; assay type: binding; details: read-out: %Ctrl @ 10000nM
T1 construct: purchased DiscoverX KINOMEscan

[2] = molecular target: T2, ABL1(F317I)-phosphorylated (Homo sapiens, UniProt P00519, F317I); assay: KINOMEscan; assay type: binding; details: read-out: %Ctrl @ 10000nM
T2 construct: purchased DiscoverX KINOMEscan

HASPIN = molecular target: T3, HASPIN (Homo sapiens, UniProt Q8TF76); assay: KINOMEscan; assay type: binding; details: read-out: %Ctrl @ 10000nM
T3 construct: purchased DiscoverX KINOMEscan

CAMK1B = molecular target: T4, CAMK1B (Homo sapiens, UniProt Q6P2M8); assay: KINOMEscan; assay type: binding; details: read-out: %Ctrl @ 10000nM
T4 construct: purchased DiscoverX KINOMEscan

DCAMKL1 = molecular target: T5, DCAMKL1 (Homo sapiens, UniProt O15075); assay: KINOMEscan; assay type: binding; details: read-out: %Ctrl @ 10000nM
T5 construct: purchased DiscoverX KINOMEscan
T5 sequence (O15075 whole entry): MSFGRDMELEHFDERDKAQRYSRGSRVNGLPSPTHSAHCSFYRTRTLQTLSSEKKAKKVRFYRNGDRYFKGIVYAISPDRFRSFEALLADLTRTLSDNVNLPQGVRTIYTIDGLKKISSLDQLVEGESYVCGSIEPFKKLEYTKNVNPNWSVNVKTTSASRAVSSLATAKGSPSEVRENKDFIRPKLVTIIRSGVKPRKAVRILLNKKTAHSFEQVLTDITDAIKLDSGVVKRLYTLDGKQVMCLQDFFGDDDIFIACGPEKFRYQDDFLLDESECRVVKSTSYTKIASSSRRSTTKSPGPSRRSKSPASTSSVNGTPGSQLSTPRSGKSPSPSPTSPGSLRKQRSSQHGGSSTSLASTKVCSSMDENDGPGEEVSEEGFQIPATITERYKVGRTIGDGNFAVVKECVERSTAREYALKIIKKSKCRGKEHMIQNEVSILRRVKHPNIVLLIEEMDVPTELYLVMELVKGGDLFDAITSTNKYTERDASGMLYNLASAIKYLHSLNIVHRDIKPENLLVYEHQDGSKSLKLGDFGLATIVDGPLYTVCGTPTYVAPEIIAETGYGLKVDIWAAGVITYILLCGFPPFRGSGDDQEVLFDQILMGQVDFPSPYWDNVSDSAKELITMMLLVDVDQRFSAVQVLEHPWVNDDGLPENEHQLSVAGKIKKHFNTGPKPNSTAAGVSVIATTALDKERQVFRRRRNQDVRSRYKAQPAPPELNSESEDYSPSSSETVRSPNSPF

ARK5 = molecular target: T6, ARK5 (Homo sapiens, UniProt O60285); assay: KINOMEscan; assay type: binding; details: read-out: %Ctrl @ 10000nM
T6 construct: purchased DiscoverX KINOMEscan

MLK1 = molecular target: T7, MLK1 (Homo sapiens, UniProt P80192); assay: KINOMEscan; assay type: binding; details: read-out: %Ctrl @ 10000nM
T7 construct: purchased DiscoverX KINOMEscan

PLK1 = molecular target: T8, PLK1 (Homo sapiens, UniProt P53350); assay: KINOMEscan; assay type: binding; details: read-out: %Ctrl @ 10000nM
T8 construct: purchased DiscoverX KINOMEscan

CSNK1G1 = molecular target: T9, CSNK1G1 (Homo sapiens, UniProt Q9HCP0); assay: KINOMEscan; assay type: binding; details: read-out: %Ctrl @ 10000nM
T9 construct: purchased DiscoverX KINOMEscan

MELK = molecular target: T10, MELK (Homo sapiens, UniProt Q14680); assay: KINOMEscan; assay type: binding; details: read-out: %Ctrl @ 10000nM
T10 construct: purchased DiscoverX KINOMEscan
T10 sequence (Q14680 whole entry): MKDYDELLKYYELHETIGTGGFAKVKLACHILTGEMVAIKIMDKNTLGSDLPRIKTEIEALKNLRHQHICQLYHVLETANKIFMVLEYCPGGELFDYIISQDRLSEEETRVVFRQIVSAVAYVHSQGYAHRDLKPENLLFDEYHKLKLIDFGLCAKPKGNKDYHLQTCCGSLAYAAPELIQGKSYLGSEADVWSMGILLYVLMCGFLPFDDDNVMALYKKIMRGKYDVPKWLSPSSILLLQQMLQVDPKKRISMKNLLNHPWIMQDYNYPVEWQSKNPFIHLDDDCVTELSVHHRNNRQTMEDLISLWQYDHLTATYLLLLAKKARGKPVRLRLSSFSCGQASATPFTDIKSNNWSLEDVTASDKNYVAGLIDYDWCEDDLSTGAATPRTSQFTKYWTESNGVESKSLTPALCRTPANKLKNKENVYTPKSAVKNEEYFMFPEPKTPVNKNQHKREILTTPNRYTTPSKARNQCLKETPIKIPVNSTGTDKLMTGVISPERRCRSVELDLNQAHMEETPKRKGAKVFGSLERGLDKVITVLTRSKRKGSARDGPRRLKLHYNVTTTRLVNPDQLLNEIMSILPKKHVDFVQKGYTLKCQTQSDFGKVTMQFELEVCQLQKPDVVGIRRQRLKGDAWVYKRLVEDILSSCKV

SRC = molecular target: T11, SRC (Homo sapiens, UniProt P12931); assay: KINOMEscan; assay type: binding; details: read-out: %Ctrl @ 10000nM
T11 construct: purchased DiscoverX KINOMEscan

MEK4 = molecular target: T12, MEK4 (Homo sapiens, UniProt P45985); assay: KINOMEscan; assay type: binding; details: read-out: %Ctrl @ 10000nM
T12 construct: purchased DiscoverX KINOMEscan

FER = molecular target: T13, FER (Homo sapiens, UniProt P16591); assay: KINOMEscan; assay type: binding; details: read-out: %Ctrl @ 10000nM
T13 construct: purchased DiscoverX KINOMEscan

YES = molecular target: T14, YES (Homo sapiens, UniProt P07947); assay: KINOMEscan; assay type: binding; details: read-out: %Ctrl @ 10000nM
T14 construct: purchased DiscoverX scanMAX; host or cells: E. coli BL21-derived host (T7 phage) or HEK-293
T14 sequence (P07947 whole entry): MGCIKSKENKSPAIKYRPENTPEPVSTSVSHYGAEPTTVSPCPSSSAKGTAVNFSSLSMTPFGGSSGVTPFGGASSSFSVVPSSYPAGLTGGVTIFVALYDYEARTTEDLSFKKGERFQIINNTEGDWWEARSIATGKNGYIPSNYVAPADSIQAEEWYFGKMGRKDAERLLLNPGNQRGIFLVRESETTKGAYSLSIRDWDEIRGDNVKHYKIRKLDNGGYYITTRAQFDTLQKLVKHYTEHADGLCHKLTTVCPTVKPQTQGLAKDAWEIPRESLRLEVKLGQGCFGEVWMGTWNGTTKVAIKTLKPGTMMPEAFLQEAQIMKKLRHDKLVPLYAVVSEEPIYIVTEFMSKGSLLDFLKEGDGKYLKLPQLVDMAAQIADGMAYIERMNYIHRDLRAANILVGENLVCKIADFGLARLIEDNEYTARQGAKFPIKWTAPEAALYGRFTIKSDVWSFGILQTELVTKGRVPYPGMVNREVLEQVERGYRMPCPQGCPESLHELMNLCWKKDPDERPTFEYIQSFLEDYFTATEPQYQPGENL

EPHA5 = molecular target: T15, EPHA5 (Homo sapiens, UniProt P54756); assay: KINOMEscan; assay type: binding; details: read-out: %Ctrl @ 10000nM
T15 construct: purchased DiscoverX KINOMEscan

TNK2 = molecular target: T16, TNK2 (Homo sapiens, UniProt Q07912); assay: KINOMEscan; assay type: binding; details: read-out: %Ctrl @ 10000nM
T16 construct: purchased DiscoverX KINOMEscan

Protein binding = details: rat
TGFBR2 = molecular target: T17, TGFBR2 (Homo sapiens, UniProt P37173); assay: KINOMEscan; assay type: binding; details: read-out: %Ctrl @ 10000nM
T17 construct: purchased DiscoverX KINOMEscan

GCN2(Kin.Dom.2,S808G) = molecular target: T18, GCN2(Kin.Dom.2,S808G) (Homo sapiens, UniProt Q9P2K8, S808G); assay: KINOMEscan; assay type: binding; details: read-out: %Ctrl @ 10000nM
T18 construct: GCN2(Kin.Dom.2,S808G); purchased DiscoverX KINOMEscan

IKK-alpha = molecular target: T19, IKK-alpha (Homo sapiens, UniProt O15111); assay: KINOMEscan; assay type: binding; details: read-out: %Ctrl @ 10000nM
T19 construct: purchased DiscoverX KINOMEscan

KIT(V559D) = molecular target: T20, KIT(V559D) (Homo sapiens, UniProt P10721, V559D); assay: KINOMEscan; assay type: binding; details: read-out: %Ctrl @ 10000nM
T20 construct: purchased DiscoverX KINOMEscan

HIPK2 = molecular target: T21, HIPK2 (Homo sapiens, UniProt Q9H2X6); assay: KINOMEscan; assay type: binding; details: read-out: %Ctrl @ 10000nM
T21 construct: purchased DiscoverX KINOMEscan

KIT(V559D,V654A) = molecular target: T22, KIT(V559D,V654A) (Homo sapiens, UniProt P10721, V559D/V654A); assay: KINOMEscan; assay type: binding; details: read-out: %Ctrl @ 10000nM
T22 construct: purchased DiscoverX KINOMEscan

[3] = molecular target: T23, ABL1(T315I)-nonphosphorylated (Homo sapiens, UniProt P00519, T315I); assay: KINOMEscan; assay type: binding; details: read-out: %Ctrl @ 10000nM
T23 construct: purchased DiscoverX KINOMEscan

TNNI3K = molecular target: T24, TNNI3K (Homo sapiens, UniProt Q59H18); assay: KINOMEscan; assay type: binding; details: read-out: %Ctrl @ 10000nM
T24 construct: purchased DiscoverX KINOMEscan
T24 sequence (Q59H18 whole entry): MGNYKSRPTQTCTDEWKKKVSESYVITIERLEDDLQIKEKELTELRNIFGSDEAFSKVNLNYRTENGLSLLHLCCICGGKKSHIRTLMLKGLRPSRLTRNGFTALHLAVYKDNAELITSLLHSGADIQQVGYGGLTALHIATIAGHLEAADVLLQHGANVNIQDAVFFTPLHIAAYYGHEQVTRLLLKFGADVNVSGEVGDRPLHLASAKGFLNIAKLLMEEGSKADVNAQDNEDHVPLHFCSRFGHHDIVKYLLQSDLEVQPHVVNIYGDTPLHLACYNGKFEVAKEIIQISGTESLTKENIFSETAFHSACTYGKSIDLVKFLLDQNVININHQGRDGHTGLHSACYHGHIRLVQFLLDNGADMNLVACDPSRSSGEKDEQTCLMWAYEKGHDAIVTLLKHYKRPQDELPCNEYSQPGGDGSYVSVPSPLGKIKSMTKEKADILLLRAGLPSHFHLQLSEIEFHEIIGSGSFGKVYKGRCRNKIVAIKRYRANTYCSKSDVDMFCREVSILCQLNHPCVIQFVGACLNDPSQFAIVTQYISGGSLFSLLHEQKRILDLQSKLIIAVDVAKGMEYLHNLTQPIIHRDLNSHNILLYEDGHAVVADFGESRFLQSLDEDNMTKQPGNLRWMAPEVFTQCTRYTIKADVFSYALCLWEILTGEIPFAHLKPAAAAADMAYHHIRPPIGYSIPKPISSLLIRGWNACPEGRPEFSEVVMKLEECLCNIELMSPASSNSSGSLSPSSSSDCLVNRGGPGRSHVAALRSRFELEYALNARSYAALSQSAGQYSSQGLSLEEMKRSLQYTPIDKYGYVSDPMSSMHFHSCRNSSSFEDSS

TIE2 = molecular target: T25, TIE2 (Homo sapiens, UniProt Q02763); assay: KINOMEscan; assay type: binding; details: read-out: %Ctrl @ 10000nM
T25 construct: purchased DiscoverX KINOMEscan

DDR2 = molecular target: T26, DDR2 (Homo sapiens, UniProt Q16832); assay: KINOMEscan; assay type: binding; details: read-out: %Ctrl @ 10000nM
T26 construct: purchased DiscoverX KINOMEscan

GRK2 = molecular target: T27, GRK2 (Homo sapiens, UniProt P25098); assay: KINOMEscan; assay type: binding; details: read-out: %Ctrl @ 10000nM
T27 construct: purchased DiscoverX KINOMEscan
T27 sequence (P25098 whole entry): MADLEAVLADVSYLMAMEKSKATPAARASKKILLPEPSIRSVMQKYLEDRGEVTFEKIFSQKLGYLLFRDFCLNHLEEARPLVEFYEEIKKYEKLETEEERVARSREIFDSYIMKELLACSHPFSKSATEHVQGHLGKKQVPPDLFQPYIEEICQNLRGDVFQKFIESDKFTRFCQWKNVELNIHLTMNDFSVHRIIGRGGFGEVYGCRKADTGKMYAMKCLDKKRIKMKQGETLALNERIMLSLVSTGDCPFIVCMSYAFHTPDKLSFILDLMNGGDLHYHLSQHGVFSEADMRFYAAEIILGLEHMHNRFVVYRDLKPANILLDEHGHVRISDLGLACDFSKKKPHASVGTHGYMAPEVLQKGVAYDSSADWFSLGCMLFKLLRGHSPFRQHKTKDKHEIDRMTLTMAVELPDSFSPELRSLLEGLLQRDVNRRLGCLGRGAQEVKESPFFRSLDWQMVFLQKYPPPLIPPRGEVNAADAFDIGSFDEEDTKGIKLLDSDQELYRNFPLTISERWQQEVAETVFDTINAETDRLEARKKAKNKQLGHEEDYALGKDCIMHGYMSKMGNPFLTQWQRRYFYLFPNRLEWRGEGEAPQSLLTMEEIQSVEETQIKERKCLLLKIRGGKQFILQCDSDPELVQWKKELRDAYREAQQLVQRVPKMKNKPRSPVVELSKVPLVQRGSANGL

CDK3 = molecular target: T28, CDK3 (Homo sapiens, UniProt Q00526); assay: KINOMEscan; assay type: binding; details: read-out: %Ctrl @ 10000nM
T28 construct: purchased DiscoverX KINOMEscan
T28 sequence (Q00526 whole entry): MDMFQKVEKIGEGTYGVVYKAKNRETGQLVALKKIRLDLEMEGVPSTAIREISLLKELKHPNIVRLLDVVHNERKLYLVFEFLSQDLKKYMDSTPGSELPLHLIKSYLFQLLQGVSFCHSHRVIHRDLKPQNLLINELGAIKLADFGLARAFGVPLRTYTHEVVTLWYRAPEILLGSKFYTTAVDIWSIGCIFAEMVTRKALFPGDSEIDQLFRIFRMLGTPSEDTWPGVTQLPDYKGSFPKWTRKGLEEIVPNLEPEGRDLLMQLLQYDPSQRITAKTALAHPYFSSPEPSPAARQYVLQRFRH

GSK3A = molecular target: T29, GSK3A (Homo sapiens, UniProt P49840); assay: KINOMEscan; assay type: binding; details: read-out: %Ctrl @ 10000nM
T29 construct: purchased DiscoverX KINOMEscan

EPHB1 = molecular target: T30, EPHB1 (Homo sapiens, UniProt P54762); assay: KINOMEscan; assay type: binding; details: read-out: %Ctrl @ 10000nM
T30 construct: purchased DiscoverX KINOMEscan

CDK4-cyclinD1 = molecular target: T31, CDK4-cyclinD1 (Homo sapiens, UniProt P11802); assay: KINOMEscan; assay type: binding; details: read-out: %Ctrl @ 10000nM
T31 construct: purchased DiscoverX KINOMEscan

[4] = molecular target: T32, ABL1(F317L)-phosphorylated (Homo sapiens, UniProt P00519, F317L); assay: KINOMEscan; assay type: binding; details: read-out: %Ctrl @ 10000nM
T32 construct: purchased DiscoverX KINOMEscan

EGFR(L861Q) = molecular target: T33, EGFR(L861Q) (Homo sapiens, UniProt P00533, L861Q); assay: KINOMEscan; assay type: binding; details: read-out: %Ctrl @ 10000nM
T33 construct: purchased DiscoverX KINOMEscan

BTK = molecular target: T34, BTK (Homo sapiens, UniProt Q06187); assay: KINOMEscan; assay type: binding; details: read-out: %Ctrl @ 10000nM
T34 construct: purchased DiscoverX KINOMEscan
T34 sequence (Q06187 whole entry): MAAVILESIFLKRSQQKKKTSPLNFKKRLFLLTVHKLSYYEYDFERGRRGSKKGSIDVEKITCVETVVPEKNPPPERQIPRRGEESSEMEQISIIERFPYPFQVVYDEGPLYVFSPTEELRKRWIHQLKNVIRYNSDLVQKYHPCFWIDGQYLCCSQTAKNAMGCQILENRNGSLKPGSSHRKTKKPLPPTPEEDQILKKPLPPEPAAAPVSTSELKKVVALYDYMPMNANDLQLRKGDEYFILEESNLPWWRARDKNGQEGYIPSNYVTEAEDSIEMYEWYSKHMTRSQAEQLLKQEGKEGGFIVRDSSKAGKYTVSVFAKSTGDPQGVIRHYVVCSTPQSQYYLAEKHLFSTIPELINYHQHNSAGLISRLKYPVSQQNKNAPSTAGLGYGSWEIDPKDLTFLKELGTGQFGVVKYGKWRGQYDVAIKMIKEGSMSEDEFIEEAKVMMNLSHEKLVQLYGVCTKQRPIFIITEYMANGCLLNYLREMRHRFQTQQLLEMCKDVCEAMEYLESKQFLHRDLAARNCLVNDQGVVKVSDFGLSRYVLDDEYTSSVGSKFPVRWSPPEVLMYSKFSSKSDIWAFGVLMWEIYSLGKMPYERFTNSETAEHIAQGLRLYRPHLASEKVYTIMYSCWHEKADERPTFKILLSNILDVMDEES

MEK2 = molecular target: T35, MEK2 (Homo sapiens, UniProt P36507); assay: KINOMEscan; assay type: binding; details: read-out: %Ctrl @ 10000nM
T35 construct: purchased DiscoverX KINOMEscan

CSF1R-autoinhibited = molecular target: T36, CSF1R-autoinhibited (Homo sapiens, UniProt P07333); assay: KINOMEscan; assay type: binding; details: read-out: %Ctrl @ 10000nM
T36 construct: purchased DiscoverX KINOMEscan

LKB1 = molecular target: T37, LKB1 (Homo sapiens, UniProt Q15831); assay: KINOMEscan; assay type: binding; details: read-out: %Ctrl @ 10000nM
T37 construct: purchased DiscoverX KINOMEscan
T37 sequence (Q15831 whole entry): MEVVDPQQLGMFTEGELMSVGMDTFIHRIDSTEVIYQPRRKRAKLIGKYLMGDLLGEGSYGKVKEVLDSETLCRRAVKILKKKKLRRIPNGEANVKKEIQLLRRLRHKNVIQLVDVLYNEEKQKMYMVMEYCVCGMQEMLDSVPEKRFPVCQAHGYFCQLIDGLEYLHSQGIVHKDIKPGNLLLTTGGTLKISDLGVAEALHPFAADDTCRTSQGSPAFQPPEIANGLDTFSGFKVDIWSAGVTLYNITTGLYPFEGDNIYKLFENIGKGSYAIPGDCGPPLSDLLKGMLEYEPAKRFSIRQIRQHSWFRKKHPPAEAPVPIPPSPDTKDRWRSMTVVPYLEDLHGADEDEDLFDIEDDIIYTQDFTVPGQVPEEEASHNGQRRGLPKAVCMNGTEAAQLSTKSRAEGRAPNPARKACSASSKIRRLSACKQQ

SNRK = molecular target: T38, SNRK (Homo sapiens, UniProt Q9NRH2); assay: KINOMEscan; assay type: binding; details: read-out: %Ctrl @ 10000nM
T38 construct: purchased DiscoverX KINOMEscan

PRKCI = molecular target: T39, PRKCI (Homo sapiens, UniProt P41743); assay: KINOMEscan; assay type: binding; details: read-out: %Ctrl @ 10000nM
T39 construct: purchased DiscoverX KINOMEscan

EGFR(E746-A750del) = molecular target: T40, EGFR(E746-A750del) (Homo sapiens, UniProt P00533, DEL746-750); assay: KINOMEscan; assay type: binding; details: read-out: %Ctrl @ 10000nM
T40 construct: purchased DiscoverX KINOMEscan

EPHA3 = molecular target: T41, EPHA3 (Homo sapiens, UniProt P29320); assay: KINOMEscan; assay type: binding; details: read-out: %Ctrl @ 10000nM
T41 construct: purchased DiscoverX KINOMEscan

In the case of `CC(C)c1ccc(CC(=O)N2CCN(c3ccc(C#N)nn3)CC2)cc1` [PZ-2891, 6-(4-(2-(4-isopropylphenyl)acetyl)piperazin-1-yl)pyridazine-3-carbonitrile], the remaining binding at 10 µM [1] was 96%, the remaining binding at 10 µM [2] was 89% and the remaining binding at 10 µM (HASPIN) was 85%. It also gave a remaining binding at 10 µM (CAMK1B) of 100%, a remaining binding at 10 µM (DCAMKL1) of 80% and a remaining binding at 10 µM (ARK5) of 94%. For the same compound, the remaining binding at 10 µM (MLK1) was 81%, the remaining binding at 10 µM (PLK1) was 85% and the remaining binding at 10 µM (CSNK1G1) was 92%. It also gave a remaining binding at 10 µM (MELK) of 75%, a remaining binding at 10 µM (SRC) of 97% and a remaining binding at 10 µM (MEK4) of 100%. For the same compound, the remaining binding at 10 µM (FER) was 88%, the remaining binding at 10 µM (YES) was 90% and the remaining binding at 10 µM (EPHA5) was 88%. For the same compound, the remaining binding at 10 µM (TNK2) was 98%, the fraction unbound (Protein binding) was 0.09 and the remaining binding at 10 µM (TGFBR2) was 98%. For the same compound, the remaining binding at 10 µM (GCN2(Kin.Dom.2,S808G)) was 87%, the remaining binding at 10 µM (IKK-alpha) was 100% and the remaining binding at 10 µM (KIT(V559D)) was 81%. It also gave a remaining binding at 10 µM (HIPK2) of 100%, a remaining binding at 10 µM (KIT(V559D,V654A)) of 73% and a remaining binding at 10 µM [3] of 63%. It also gave a remaining binding at 10 µM (TNNI3K) of 76%, a remaining binding at 10 µM (TIE2) of 97% and a remaining binding at 10 µM (DDR2) of 85%. For the same compound, the remaining binding at 10 µM (GRK2) was 56%, the remaining binding at 10 µM (CDK3) was 97% and the remaining binding at 10 µM (GSK3A) was 83%. The remaining binding at 10 µM (EPHB1) was 90%, the remaining binding at 10 µM (CDK4-cyclinD1) was 100% and the remaining binding at 10 µM [4] was 100%. The remaining binding at 10 µM (EGFR(L861Q)) was 100%, the remaining binding at 10 µM (BTK) was 94% and the remaining binding at 10 µM (MEK2) was 80%. It also gave a remaining binding at 10 µM (CSF1R-autoinhibited) of 93%, a remaining binding at 10 µM (LKB1) of 93% and a remaining binding at 10 µM (SNRK) of 85%. The remaining binding at 10 µM (PRKCI) was 83%, the remaining binding at 10 µM (EGFR(E746-A750del)) was 100% and the remaining binding at 10 µM (EPHA3) was 65%.
